Test results reported in the supplement of paper PMC10307832.

Tests used:
Assay in all cases: relative viability (nuclei count vs DMSO), 5 days (fraction); higher = more cells survive
Trametinib + Olaparib = compound: CC(=O)Nc1cccc(-n2c(=O)n(C3CC3)c(=O)c3c(Nc4ccc(I)cc4F)n(C)c(=O)c(C)c32)c1 [Trametinib] + O=C(c1cc(Cc2n[nH]c(=O)c3ccccc23)ccc1F)N1CCN(C(=O)C2CC2)CC1 [Olaparib] (partner 8 µM)
How it was run: (§1)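 Relative viability divides the nuclei count in treated wells by that in vehicle wells. Lung cancer cell lines were seeded in 1536-well plates, dosed by pin tool the next day, and fixed and stained after 5 days in one step with final 0.05% Triton X-100, 1% formaldehyde and 1 ug/ml Hoechst. Dosing was a single drug or a fixed anchor-drug dose plus five library-drug doses (not always all listed) in √10 steps, and values are medians of duplicate plates imaged at 4×.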

[1] = compound: CN1C=C(C2=CC=CC=C21)/C=C\3/C4=C(C=CC=N4)NC3=O + NC(=O)Nc1cc(-c2cccc(F)c2)sc1C(=O)N[C@H]1CCCNC1 [AZD7762] (partner 0.2 µM)
How it was run: as §1

[2] = compound: CN1C=C(C2=CC=CC=C21)/C=C\3/C4=C(C=CC=N4)NC3=O + COc1cccc2cc(-c3nc([C@H]4CC[C@H](C(=O)O)CC4)n4ncnc(N)c34)[nH]c12 [OSI-027] (partner 0.5 µM)
How it was run: as §1

Trametinib + Luminespib = compound: CC(=O)Nc1cccc(-n2c(=O)n(C3CC3)c(=O)c3c(Nc4ccc(I)cc4F)n(C)c(=O)c(C)c32)c1 [Trametinib] + CCNC(=O)c1noc(-c2cc(C(C)C)c(O)cc2O)c1-c1ccc(CN2CCOCC2)cc1 [Luminespib] (partner 0.01 µM)
How it was run: as §1

| Cell Line | relative viability (Trametinib + Olaparib; first compound 0.0025 µM) | relative viability (Trametinib + Olaparib; first compound 0.007906 µM) | relative viability (Trametinib + Olaparib; first compound 0.025 µM) | relative viability (Trametinib + Olaparib; first compound 0.25 µM) | relative viability ([1]; first compound 0.02 µM) | relative viability ([1]; first compound 0.06325 µM) | relative viability ([1]; first compound 0.2 µM) | relative viability ([1]; first compound 0.6325 µM) | relative viability ([1]; first compound 2 µM) | relative viability ([2]; first compound 0.02 µM) | relative viability ([2]; first compound 0.06325 µM) | relative viability ([2]; first compound 0.2 µM) | relative viability ([2]; first compound 0.6325 µM) | relative viability ([2]; first compound 2 µM) | relative viability (Trametinib + Luminespib; first compound 0.0025 µM) | relative viability (Trametinib + Luminespib; first compound 0.007906 µM) | relative viability (Trametinib + Luminespib; first compound 0.025 µM) | relative viability (Trametinib + Luminespib; first compound 0.07906 µM) | relative viability (Trametinib + Luminespib; first compound 0.25 µM) | relative viability (Trametinib + Olaparib; first compound 0.07906 µM) |
| --- | --- | --- | --- | --- | --- | --- | --- | --- | --- | --- | --- | --- | --- | --- | --- | --- | --- | --- | --- | --- |
| PC-3 [JPC-3] | 1.12 | 0.927 | 0.982 | 0.699 | 0.811 | 0.801 | 0.752 | 0.819 | 0.701 | 0.698 | 0.487 | 0.747 | 0.703 | 0.694 | 0.656 | 0.574 | 0.385 | 0.405 | 0.396 | – |
| NCI-H1755 | 0.849 | 0.826 | 0.804 | 0.742 | 0.443 | 0.408 | 0.354 | 0.448 | 0.409 | 0.619 | 0.654 | 0.655 | 0.683 | 0.644 | 0.412 | 0.333 | 0.598 | 0.462 | 0.301 | 0.807 |
| RERF-LC-KJ | 0.926 | 0.81 | 0.919 | 0.648 | 1.03 | 0.96 | 0.805 | 1.01 | 0.928 | 0.551 | 0.574 | 0.493 | 0.554 | 0.545 | 1.21 | 1.19 | 1.14 | 1.09 | 0.736 | 0.907 |
| NCI-H647 | 0.481 | 0.362 | 0.491 | 0.218 | 0.348 | 0.418 | 0.0952 | 0.304 | 0.378 | 0.719 | 0.616 | 0.478 | 0.655 | 0.557 | 0.183 | 0.12 | 0.324 | 0.209 | 0.102 | 0.452 |
| BEN | 1.15 | 1.04 | 0.995 | 1.02 | 0.771 | 0.742 | 0.485 | 0.622 | 0.728 | 0.282 | 0.29 | – | 0.403 | 0.276 | 0.269 | 0.374 | 0.154 | 0.379 | 0.377 | 1.01 |
| 201T | 0.841 | 0.782 | 0.747 | 0.642 | 0.578 | 0.662 | 0.761 | 0.668 | 0.658 | 0.773 | 0.366 | 0.626 | 0.835 | 0.422 | 1.08 | 0.866 | 0.856 | 0.852 | 0.8 | 0.678 |
| LC-2-ad | 0.683 | 0.663 | 0.706 | 0.604 | 0.836 | 0.835 | 0.754 | 0.821 | 0.861 | 0.81 | 0.811 | 0.687 | 0.803 | 0.724 | 0.975 | 0.951 | 1 | 0.71 | 0.447 | 0.695 |
| NCI-H522 | 0.617 | 0.485 | 0.583 | 0.545 | 0.686 | 0.784 | 0.76 | 1.1 | 0.882 | 0.648 | 0.743 | 0.761 | 0.75 | 0.835 | 1.04 | 0.917 | 1 | 0.844 | 0.574 | 0.555 |
